We go through one molecule from patent US20220023471A1, “PROCESS FOR DISINFECTION AND PROTECTING SURFACES FROM CONTAMINATION” (GERMINATOR MOBILE SANITIZING, LLC, priority 2020, published 2022).

Assay in all cases: Microorganism Efficacy Test (percent reduction in culture)
What all share (type): cell-based

The subject of assay [1] is Listeria Monocytogens ATCC 15313. The note with it: time point 60 seconds. The method, then: (§1) Example 1: A Microorganism Efficacy Test for Step One using Hypochlorous acid was tested against a range of different germs and bacteria to determine its efficacy. The hypochlorous acid was added to cultures of the listed microorganisms and left for the indicated amount of time. The percent reduction of each microorganism was measured after the time period had elapsed and the results are shown below in Table 1.

For assay [2], the system named is Propionibacterium Acnes ATCC 6919. The note with it: time point 60 seconds. The protocol:
as §1

For assay [3], the system named is Pseudomonas aeruginosa ATCC 9027. The conditions noted are these: time point 60 seconds. The method, then:
as §1

In assay [4] the test system is Proteus mirabilis ATCC7002. The note with it: time point 15 seconds. The protocol: as §1
Assay [5] deals with Acinetobacter baumannii ATCC 19606. The note with it: time point 15 seconds. The method, then: as §1
The next assay deals with S. aureus ATCC 6538. The note with it: time point 60 seconds. The protocol: as §1
The next assay has as its system C Difficile ATCC 43598. The conditions noted are these: time point 60 seconds. The protocol:
as §1

Assay [6] has as its system A brasiliensis ATCC 16404. The note with it: time point 60 seconds. The method, then:
as §1

For a further assay, the system named is E. Coli ATCC 8739. The conditions noted are these: time point 60 seconds. The protocol:
as §1

The test system of assay [7] is Staphylococcus arureus (MRSA) ATCC 33592. The conditions noted are these: time point 15 seconds. The method, then: as §1
For assay [8], the system named is Candida albicans ATCC 1023. The note with it: time point 60 seconds. The method, then: as §1
Assay [9] relates to Enterococcus faecalis (VRE) ATCC 51299. The note with it: time point 15 seconds. The method, then: as §1
The subject of assay [10] is K. pneumonia (CRE) ATCC BAA-2146. The note with it: time point 60 seconds. The protocol:
as §1

Assay [11] relates to Serratia marscesens ATCC 14756. The note with it: time point 15 seconds. The method, then: as §1

Take `OCl` [Hypochlorous acid]: the “% REDUCTION” value in assay [1] is reported as over 99.96%; in assay [2], over 99.99%; in assay [3], over 99.999%; in assay [4], over 99.999%; in assay [5] it was 100%; with S. aureus ATCC 6538 it was over 99.999%. In addition, the “% REDUCTION” value in the assay on C Difficile ATCC 43598 is reported as over 100%; in [6] it was over 99.999%; in the assay on E. Coli ATCC 8739 it was over 99.999%; in assay [7], over 99.999%; in [8], over 99.9999%; in [9], 100%. In addition, the “% REDUCTION” value is listed as over 99.9994% in [10] and over 99.999% in assay [11].
